In US8383817B2, “Benztropine compounds and uses thereof” (The United States of America, as represented by the …, priority 2005, dated 2013):

Assays:
[1] = target: T1, DAT (Rattus norvegicus, UniProt P23977); assay: biochemical; assay type: binding
T1 construct: their brains removed to an ice-cooled dish for dissection of the caudate putamen; from tissue; host or cells: rat caudate putamen homogenate

[2] = target: T2, SERT (Rattus norvegicus, UniProt P31652); assay: [3H]Citalopram Binding Assay, rat midbrain membranes
T2 construct: Membranes from frozen rat midbrain were homogenized; from tissue; host or cells: rat midbrain membranes
T2 sequence (P31652 whole entry): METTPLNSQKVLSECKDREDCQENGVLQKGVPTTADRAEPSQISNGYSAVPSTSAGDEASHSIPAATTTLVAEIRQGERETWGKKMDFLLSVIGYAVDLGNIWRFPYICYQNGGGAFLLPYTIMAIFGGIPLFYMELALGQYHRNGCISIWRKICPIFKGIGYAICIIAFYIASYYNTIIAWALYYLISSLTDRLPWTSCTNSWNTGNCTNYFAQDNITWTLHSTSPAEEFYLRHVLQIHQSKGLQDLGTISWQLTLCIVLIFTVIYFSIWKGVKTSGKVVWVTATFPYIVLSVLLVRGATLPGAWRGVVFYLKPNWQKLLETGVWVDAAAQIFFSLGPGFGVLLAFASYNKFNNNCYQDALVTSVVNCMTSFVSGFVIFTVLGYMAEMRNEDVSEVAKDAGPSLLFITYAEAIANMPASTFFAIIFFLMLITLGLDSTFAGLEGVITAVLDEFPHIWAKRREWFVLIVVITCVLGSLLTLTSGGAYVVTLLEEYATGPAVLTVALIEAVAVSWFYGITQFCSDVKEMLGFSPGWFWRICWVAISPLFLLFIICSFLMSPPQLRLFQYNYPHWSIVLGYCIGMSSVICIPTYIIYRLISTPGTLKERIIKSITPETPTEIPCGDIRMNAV

[3] = target: T3, NET (Rattus norvegicus, UniProt Q9WTR4); assay type: binding; settings: read-out: NET Ki; Table 2
T3 construct: rows headed: NET Ki; NET Ki

[4] = target: T4, DA uptake (Rattus norvegicus, UniProt P23977); assay: Dopamine Uptake Assay, [3H]dopamine in synaptosomal tissue preparation; assay type: biochemical
T4 construct: The synaptosomal tissue preparation was incubated in buffer in glass test tubes at 37° C; from tissue
T4 sequence (P23977 whole entry): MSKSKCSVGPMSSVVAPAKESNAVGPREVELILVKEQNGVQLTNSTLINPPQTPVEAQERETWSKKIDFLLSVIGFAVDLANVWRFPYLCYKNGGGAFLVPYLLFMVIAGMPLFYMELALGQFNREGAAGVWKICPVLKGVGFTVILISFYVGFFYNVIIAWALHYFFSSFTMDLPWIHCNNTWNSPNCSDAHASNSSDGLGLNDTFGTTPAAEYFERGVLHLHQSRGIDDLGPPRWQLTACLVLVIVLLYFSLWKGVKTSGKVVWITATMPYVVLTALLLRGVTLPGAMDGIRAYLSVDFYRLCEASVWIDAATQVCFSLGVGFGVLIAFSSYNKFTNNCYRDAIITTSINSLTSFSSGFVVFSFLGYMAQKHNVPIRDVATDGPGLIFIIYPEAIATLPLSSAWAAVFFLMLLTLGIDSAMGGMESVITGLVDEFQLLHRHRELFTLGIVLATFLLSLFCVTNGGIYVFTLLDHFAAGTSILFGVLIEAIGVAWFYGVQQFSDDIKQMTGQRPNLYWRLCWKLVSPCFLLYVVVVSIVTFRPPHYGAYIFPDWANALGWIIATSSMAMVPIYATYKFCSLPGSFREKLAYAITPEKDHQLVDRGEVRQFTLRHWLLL

[5] = target: T5, muscarinic M1 receptor (Rattus norvegicus, UniProt P08482); assay: [3H]Pirenzepine Binding Assay, rat brain membranes
T5 construct: Membranes from frozen rat brains excluding cerebellum were thawed; from tissue; host or cells: rat brain (excluding cerebellum) membranes
T5 sequence (P08482 1-460): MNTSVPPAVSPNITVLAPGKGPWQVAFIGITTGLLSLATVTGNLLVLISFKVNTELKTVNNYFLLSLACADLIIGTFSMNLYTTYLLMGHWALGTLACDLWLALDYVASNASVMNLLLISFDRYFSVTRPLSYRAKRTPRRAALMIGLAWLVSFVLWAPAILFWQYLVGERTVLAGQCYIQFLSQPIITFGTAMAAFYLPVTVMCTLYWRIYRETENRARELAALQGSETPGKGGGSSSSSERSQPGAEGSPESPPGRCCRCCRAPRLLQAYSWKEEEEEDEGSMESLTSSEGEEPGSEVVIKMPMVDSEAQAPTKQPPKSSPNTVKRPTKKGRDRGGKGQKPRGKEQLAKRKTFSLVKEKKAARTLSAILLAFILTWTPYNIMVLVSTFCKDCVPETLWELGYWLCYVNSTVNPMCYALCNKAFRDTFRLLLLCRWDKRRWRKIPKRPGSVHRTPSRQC

[6] = Cocaine Discrimination Assay; assay type: in vivo, rat; settings: rats trained to discriminate IP 10 mg/kg cocaine from saline; 80% or higher = full substitution; FIG. 1
[7] = Model For Determining Increase in Attention; assay type: in vivo, rat; settings: rats, five-hole chamber, 40 min session, FIG. 4B
Procedure: Model For Determining Increase in Attention. Rats were trained during daily sessions in a chamber which contained five holes along one wall. When a light came on behind one of the holes, the rat had 5 sec to respond by putting its nose in the hole. If it did this, a food pellet was dispensed. Lights came on for one second randomly in time. Each tenth “correct” response produced a food pellet. The rat had to continuously monitor (attend to) the lights to perform well. The results were measured and illustrated in FIG. 4A. […] The short diagonal marks on the line indicate the occasions on which food pellets were delivered.
Rats were administered a dose of a compound of Formula III, in which R^1 is methyl and R^2 and R^3 are each fluoro. The same task was applied and the number of correct and incorrect responses was measured. The results are depicted in FIG. 4B.

[8] = Model For Reducing Effect of Nicotine (nicotine discrimination); assay type: in vivo, rat; settings: rats; dose 1.0 mg/kg; nicotine only control 50%
Text: Model For Reducing Effect of Nicotine. Food-deprived rats were trained to press one lever for a food pellet after nicotine administration and a second lever after vehicle administration. Pellets of food were delivered intermittently, so that every twentieth response produced food. Using this procedure, the only cue for the rat regarding which lever occasionally pays off with a food pellet, is the subjective effect of the nicotine. When the rats were accurately and reliably identifying the nicotine injections (approximately all of its responses on the lever that occasionally pays off after nicotine or saline), testing began. The rats were pretreated with a compound of Formula III before nicotine injection, and the experiment progressed as described above, except responses on either lever intermittently produced food. A 50% effective nicotine dose was reduced to low levels of effectiveness upon administration of a compound of Formula III.

T1 sequence (P23977 whole entry): as the sequence (P23977 whole entry) above

SMILES	Ki [1]	Ki [2]	Ki [3]	IC50 [4]	Ki [5]	Substitution for cocaine (cocaine-appropriate responding) [6]	Number of correct responses (attention to brief light stimuli) [7]	Effect (of a 50% effective nicotine dose after pretreatment) [8]
CCOC(=O)[C@@H]1[C@@H](OC(c2ccc(Cl)cc2)c2ccc(Cl)cc2)C[C@H]2CC[C@@H]1N2C [Compound S-15, S-(+)-2β-Carboethoxy-3α-[bis(4-chlorophenyl)methoxy]tropane]	14.6 ± 0.39 nM	1560 ± 91 nM	3350 ± 154 nM	1.52 ± 0.2 nM	3060 ± 150 nM			
COC(=O)[C@@H]1[C@@H](OC(c2ccc(Cl)cc2)c2ccc(Cl)cc2)C[C@H]2CC[C@@H]1N2C [Compound S-14]	12.6 ± 0.4 nM	528 ± 39 nM	2150 ± 325 nM	2.46 ± 0.2 nM	382 ± 37 nM			
CN1[C@@H]2CC[C@@H]1CC(OC(c1ccc(F)cc1)c1ccc(F)cc1)C2 (stereo partly shown) [AHN 1-055]						did not fully substitute for cocaine	far greater than before treatment	7.65%
